# Results: article PMC8087159 (Bioconjugate chemistry, 2021)
# “Also recorded” adds a separate entry of the source. Where two headings read alike, the source gives them in different places.
# Columns and labels:
# [1] = cited from earlier work
# [2] = mouse, in vivo, po
# [3] = 3.5 μmol per mouse oral gavage; for liver accumulation of N-retinylamides / original drug in the eye: 2 and 16 h; for N-retinylamides in the eye: 16 h
# Storage stability = format: physicochemical
# [4] = tested on: light-induced retinal degeneration in Abca4^−/−Rdh8^−/− mice; assay: Retinal histology; format: in vivo; details: drug before intense light exposure; 7 days after light exposure
# Caco-2 cell monolayer = Caco-2 cell monolayer transport; format: in vitro ADME, human; details: 500 μM in PBS pH 6 on apical side, 37 °C, within 24 h; compared with Ret-NH2
# ARPE19 cells = assay: ARPE19 cell uptake; format: in vitro ADME, human; details: 10 μM, 16 h; compared with Ret-NH2
# RPE65 [5] = molecular target: RPE65 (Bos taurus, UniProt Q28175); assay: RPE microsome retinoid isomerase assay; format: biochemical, Bovine; details: RPE microsomes, 0.5–10 μM compound, 10 μM all-trans-retinol, 1 h
# RPE65 [6] = molecular target: T1, RPE65 (Homo sapiens, UniProt Q16518); format: cell-based; details: NIH3T3 cells, 4.5 μM drug, 10 μM all-trans-retinol, 16 h
# T1 sequence (Q16518 1-533): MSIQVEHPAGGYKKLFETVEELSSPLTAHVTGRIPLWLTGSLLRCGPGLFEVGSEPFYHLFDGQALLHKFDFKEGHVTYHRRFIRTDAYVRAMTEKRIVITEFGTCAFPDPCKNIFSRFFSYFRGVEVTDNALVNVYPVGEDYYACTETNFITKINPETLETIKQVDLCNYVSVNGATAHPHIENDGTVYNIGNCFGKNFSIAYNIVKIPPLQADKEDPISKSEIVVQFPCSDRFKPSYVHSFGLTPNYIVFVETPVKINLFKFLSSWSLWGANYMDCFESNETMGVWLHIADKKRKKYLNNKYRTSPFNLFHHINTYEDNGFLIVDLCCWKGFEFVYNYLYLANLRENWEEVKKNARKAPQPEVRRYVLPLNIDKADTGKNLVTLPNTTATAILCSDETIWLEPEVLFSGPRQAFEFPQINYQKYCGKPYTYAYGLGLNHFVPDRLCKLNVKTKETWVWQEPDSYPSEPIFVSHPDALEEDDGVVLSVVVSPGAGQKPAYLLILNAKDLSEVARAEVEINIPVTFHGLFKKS
# RPE65 [7] = molecular target: T2, RPE65 (Mus musculus, UniProt Q91ZQ5); assay: In vivo RPE65 inhibition; details: 1.75 μmol/mouse oral gavage 16 h before bleach 10 min at 7000 lx; 24 h in the dark
# T2 sequence (Q91ZQ5 2-533): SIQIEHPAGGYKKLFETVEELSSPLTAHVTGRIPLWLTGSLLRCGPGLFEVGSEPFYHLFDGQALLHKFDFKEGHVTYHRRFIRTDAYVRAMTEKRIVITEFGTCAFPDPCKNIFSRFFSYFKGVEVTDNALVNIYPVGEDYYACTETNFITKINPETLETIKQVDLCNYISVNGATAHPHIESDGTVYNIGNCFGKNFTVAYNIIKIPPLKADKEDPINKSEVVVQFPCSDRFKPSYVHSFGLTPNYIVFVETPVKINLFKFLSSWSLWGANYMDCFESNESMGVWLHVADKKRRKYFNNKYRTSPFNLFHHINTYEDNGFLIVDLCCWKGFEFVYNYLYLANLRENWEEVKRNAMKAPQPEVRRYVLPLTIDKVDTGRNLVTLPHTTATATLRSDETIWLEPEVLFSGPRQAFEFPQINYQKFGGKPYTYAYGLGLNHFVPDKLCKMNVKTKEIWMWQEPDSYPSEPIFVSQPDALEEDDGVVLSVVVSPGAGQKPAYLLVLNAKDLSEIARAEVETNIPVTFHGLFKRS
# [8] = tested on: retinal function of C57BL/6J WT mice; assay: ERG scotopic a-waves in wild-type mice after drug treatment; format: in vivo; details: 1.75 μmol per mouse gastric gavage 16 h prior to ERG
# [9] = tested on: light-induced retinal degeneration in Abca4^−/−Rdh8^−/− mice; assay: ERG scotopic a-waves after light-induced retinal degeneration; details: 1.9 μmol/mouse gastric gavage 16 h prior to light illumination; measured 7 days after drug administration and illumination
# Chain of RPE65 (Bos taurus, UniProt Q28175) (Q28175 whole entry): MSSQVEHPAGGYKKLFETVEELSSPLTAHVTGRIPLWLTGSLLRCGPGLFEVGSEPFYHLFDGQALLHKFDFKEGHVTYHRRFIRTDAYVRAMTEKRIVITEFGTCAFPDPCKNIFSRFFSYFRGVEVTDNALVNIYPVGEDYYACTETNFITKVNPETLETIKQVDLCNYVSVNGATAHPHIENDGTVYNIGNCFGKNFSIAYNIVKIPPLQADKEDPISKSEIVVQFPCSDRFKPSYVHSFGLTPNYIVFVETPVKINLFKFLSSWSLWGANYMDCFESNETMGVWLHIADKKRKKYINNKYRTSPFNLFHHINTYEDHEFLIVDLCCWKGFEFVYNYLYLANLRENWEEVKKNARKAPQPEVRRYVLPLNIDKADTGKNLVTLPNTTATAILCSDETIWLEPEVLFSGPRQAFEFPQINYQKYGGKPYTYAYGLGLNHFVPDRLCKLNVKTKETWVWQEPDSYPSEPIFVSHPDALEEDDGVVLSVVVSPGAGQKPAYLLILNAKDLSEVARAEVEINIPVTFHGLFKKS
compound,measurement,setting,value
COc1ccc(OC)c(C(O)CN)c1 (stereo not drawn) [desglymidodrine],oral bioavailability,[1]; desglymidodrine to midodrine,50%
CC1=C(/C=C/C(C)=C/C=C/C(C)=C/CNC(=O)[C@@H](N)C(C)C)C(C)(C)CCC1 [RV],N-retinylamides in the eye,[2],no detectable N-retinylamides
same,liver accumulation of N-retinylamides,[2],lower liver accumulations of N-retinylamides than did RF and RL
same,original drug in the eye,[2],detected in the eyes at 2 and 16 h at relatively high concentrations
CC1=C(/C=C/C(C)=C/C=C/C(C)=C/CNC(=O)CN)C(C)(C)CCC1 [RG],liver accumulation of N-retinylamides,[3],lower liver accumulations of N-retinylamides than did RF and RL
same,original drug in the eye,[3],detected in the eyes at 2 and 16 h at relatively high concentrations
same,N-retinylamides in the eye,[3],comparable to that of Ret-NH2
"CC1=C(/C=C/C(C)=C/C=C/C(C)=C/CNC(=O)CNC(=O)[C@@H](N)C(C)C)C(C)(C)CCC1 [RVG, Ret-NH2-L-valylglycine amide]",degradation on storage,Storage stability; stored in a desiccator under vacuum at room temperature for 2 months,Less than 5%
same,retinal structure by histology (H&E),[4],maintained an intact retinal structure
same,transport through the Caco-2 monolayer,Caco-2 cell monolayer,significantly higher transport
same,uptake by ARPE19 cells,ARPE19 cells,higher uptake
same,inhibition of RPE65 activity (11-cis-retinol production),RPE65 [5],did not affect significant inhibition; also recorded: no inhibitory effect
same,11-cis-retinol production,RPE65 [6],easily detected
same,regeneration of 11-cis-retinal in the eye,RPE65 [7],greater regeneration of 11-cis-retinal
same,recovery of retinal function (ERG),[8],rapid recovery of retinal function
same,liver accumulation of N-retinylamides,[3],lower liver accumulations of N-retinylamides than did RF and RL
same,original drug in the eye,[3],detected only at 16 h
same,N-retinylamides in the eye,[3],no detectable N-retinylamides
Emixustat-L-Val-Gly amide [EVG],ERG activities (scotopic a-waves),[9],only slight decrease of ERG activities
CC1=C(/C=C/C(C)=C/C=C/C(C)=C/CNC(=O)[C@@H](N)CC(C)C)C(C)(C)CCC1 [RL],original drug in the eye,[3],detected only at 2 h
same,N-retinylamides in the eye,[3],comparable to that of Ret-NH2
CC1=C(/C=C/C(C)=C/C=C/C(C)=C/CNC(=O)[C@@H](N)Cc2ccccc2)C(C)(C)CCC1 [RF],transport through the Caco-2 monolayer,Caco-2 cell monolayer,significantly higher transport
same,uptake by ARPE19 cells,ARPE19 cells,higher uptake
same,inhibition of RPE65 activity (11-cis-retinol production),RPE65 [5],minor inhibitory effects
same,original drug in the eye,[3],detected only at 2 h
same,N-retinylamides in the eye,[3],comparable to that of Ret-NH2
Nc1nc2c(ncn2COCCO)c(=O)[nH]1 [acyclovir],oral bioavailability (Fo),"[1]; in vivo, po",~ 16%
"CC1=C(/C=C/C(C)=C/C=C/C(C)=C/CN)C(C)(C)CCC1 [Ret-NH2, Retinylamine, reference compound]",decomposed on storage,"Storage stability; desiccator under vacuum at room temperature, within 1 week",95%
same,inhibition of RPE65 activity (11-cis-retinol production),RPE65 [5],concentration-dependent inhibition
same,11-cis-retinol production,RPE65 [6],virtually ablated 11-cis-retinol production
same,regeneration of 11-cis-retinal in the eye,RPE65 [7],much lower concentration of 11-cis-retinal than the untreated controls
same,original drug in the eye,[3],No Ret-NH2 was detected at 2 and 16 h in the eye
same,N-retinylamide concentration in liver,[3]; 2 h,much higher liver concentrations
